Holding throughout (assay type): cell-based
The subject of assay [1] is CTR-ZO-1 interaction. Description: In situ proximity ligation assay (PLA). Particulars: LNCaP cells, CT 50 nM, 30 seconds. On the procedure:
(§1) Fixed PC cells or tissues were immunolabeled with primary antibodies (anti-rabbit ZO-1 serum and anti-goat CTR serum) for overnight at 4° C. The secondary antibodies with attached PLA probes were supplied in the Duolink™ kit (Olink Bioscience, Uppsala, Sweden). CTR-ZO-1 interaction was observed by confocal microscopy at 400×. A red fluorescent dot indicated the two proteins are within 35 nm distance. The number of dots per cell was determined by Blobfinder™ image analysis software (Allalou et al., 2009).
(§2) Next, CTR-ZO-1 interaction was examined in PC-3CTRwt cells. […] Each dot represents an interaction between activated CTR and ZO-1, detected by in situ PLA™ using the Duolink® kit. Nuclei were stained with DAPI. The graph presents quantitative data of CTR-ZO-1 interactions in three separate but identical experiments (mean±SEM; n=6, p<0.001, paired t-test). […] Next, this phenomenon was examined in LNCaP cells, which are androgen-responsive and endogenously express CTR but not CT (Karpova et al., 2006). […] Finally, non-metastatic and metastatic PC specimens were examined in a similar experiment.
(§3) Since CTR directly interacts with ZO-1 through PDZ domain, whether CT-induced endocytosis of ZO-1 is caused by CTR-mediated events prior to or subsequent to CTR-ZO-1 interaction was tested. To determine the time course of CTR-ZO-1 interaction, in situ PLA assay was used (FIG. 15D). […] Representative micrographs are shown of CTR-ZO-1 interactions in PC-3CTRwt cells at various time periods (0-300 seconds) after CT stimulus. Each highlighted dot represents an interaction between activated CTR and ZO-1, detected by in situ PLA™ using the Duolink® kit. Nuclei were stained with DAPI. The line graph presents the mean±SEM of dots at each time point (n=6). […] Considering that ZO-1 endocytosis was observed after 1 minute of CT stimulus, it is conceivable that CTR-mediated events subsequent to CTR-ZO-1 interaction may be associated with TJ protein endocytosis.

Assay [2] addresses T1, CTR-ZO-1 interaction (Homo sapiens, UniProt P30988, E471A/S472A/S473A).
T1 construct: PCR generated full length CTRwt and CTRΔESS cDNAs were cloned directionally into pcDNA3.1 mammalian expression vector; FLAG (N); expressed in transfected cells; host or cells: PC-31 / PC-3 cells stably expressing FLAG-CTRwt; ZO-1 is the cells' own
T1 sequence (P30988 with tags, fused parts or gaps): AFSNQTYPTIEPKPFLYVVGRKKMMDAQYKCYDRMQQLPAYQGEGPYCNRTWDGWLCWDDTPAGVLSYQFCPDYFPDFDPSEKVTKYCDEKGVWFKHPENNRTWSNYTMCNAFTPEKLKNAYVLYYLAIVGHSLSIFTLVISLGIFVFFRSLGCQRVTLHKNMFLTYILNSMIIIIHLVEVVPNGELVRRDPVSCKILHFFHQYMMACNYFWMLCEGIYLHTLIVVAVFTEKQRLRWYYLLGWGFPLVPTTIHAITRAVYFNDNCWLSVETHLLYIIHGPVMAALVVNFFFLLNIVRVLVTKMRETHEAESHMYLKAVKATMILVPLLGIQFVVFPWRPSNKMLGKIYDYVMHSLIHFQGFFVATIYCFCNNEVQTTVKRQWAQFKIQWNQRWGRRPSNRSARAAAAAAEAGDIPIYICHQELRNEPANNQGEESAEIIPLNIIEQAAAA
The assay can be described thus: In situ proximity ligation assay (PLA). To be noted: PC-3CTRΔESS cells, with or without CT. On the procedure:
as §1, §2, §3

Assay [3] concerns the target T2, CTR-ZO-1 interaction (Homo sapiens, UniProt P30988).
T2 construct: PCR generated full length CTRwt and CTRΔESS cDNAs were cloned directionally into pcDNA3.1 mammalian expression vector; FLAG (N); expressed in transfected cells; host or cells: PC-31 / PC-3 cells stably expressing FLAG-CTRwt; ZO-1 is the cells' own
T2 sequence (P30988 25-474): T1 sequence (P30988 with tags, fused parts or gaps) with A447E, A448S, A449S
The assay can be described thus: In situ proximity ligation assay (PLA). To be noted: PC-3CTRwt cells. Here is the method: as §1, §2, §3

Assay [4] has as its system LNCaP, DU-145 and PC-3M cells. Description: Matrigel in vitro invasion assay. Particulars: 50 nM CT, 48 h. Here is the method:
Invasion experiments were conducted in Matrigel™ invasion chambers as previously described (Sabbisetti et al., 2005).
(§4) Whether CT produces similar effects in LNCaP, PC-3M and DU-145 cell lines, which endogenously express CTR, was examined as shown in FIG. 1A. FIGS. 9A-9B depict the effect of CT on tight junction (TJ) disruption as measured using TER and PCP in the three prostate cancer cell lines—LNCaP, PC-3M, and DU-145. Cells were serum-starved for 4 hours, then treated with and without 50 nM CT, before measuring TER as described above. In FIG. 9B, cells were treated with and without 50 nM CT, and PCP determined by diffusion of ˜4 kDa TRITC-conjugated dextran from the upper to the lower chamber in one hour. The results are expressed as μg/ml/hour of TRITC-Dextran diffused ±SEM (n=6; *p<0.05 (−CT v +CT, One way ANOVA and Newman-Keul's test)). FIG. 9C depicts effects of CT on cell invasion in the same three cell lines—PC-3M, LNCaP, and DU145. Cells were added to upper insert of invasion chambers with or without 50 nM CT, and cells that passed through the Matrigel™ barrier were counted after 48 h. The results are expressed as mean number of invaded cells per 400× field ±SEM (n=6; *p<0.05).

Assay [5] has as its system LNCaP, PC-3M and DU-145 cell lines. Description: Transepithelial electric resistance (TER). Particulars: 50 nM CT. Here is the method: Cells were plated on Transwell filters (0.4 μm pore size) and grown to confluency in complete medium (RPMI1640 containing 10% fetal bovine serum, 20 mM HEPES and antibiotics). TER of the cultures (in duplicate wells) was measured at several time intervals with EVOM volt-ohm meter as previously described (Shah et al, 2009). The readings were corrected for blank (TER values from the filter in bathing medium). The integrity and cell density of monolayers were carefully monitored.
as §4, with “Cells were serum-starved for 4 hours, then treated with and without 50 nM CT, before measuring TER as described above.” left out, “FIG. 9C depicts effects of CT on cell invasion in the same three cell lines—PC-3M, LNCaP, and DU145.” left out

Residue numbers refer to the chain shown, from its start.

On to calcitonin [CT], for which the “CTR-ZO-1 interactions (PLA dots)” value is “strong interaction” in assay [1]; “no CTR-ZO-1 interactions were observed” in assay [2]; “eighty-fold increase” in assay [3] (50 nM CT, 30 seconds). In assay [3], the “time of peak CTR-ZO-1 interaction after CT stimulus” value is 30 s. Moreover, in assay [4], the invasion entry was “significantly increased”. Besides, the TER entry in assay [5] is reported as “reduced TER”.
